Test results from patent US11279733B2, “Peptide antibiotics” (priority 2017, dated 2022).
≈ marks a conversion by molar mass, not a printed value. Positions of bridges follow the written chain, without caps; N, C: chain ends. Non-standard residues stand in square brackets, D forms with d. Residues, ends and D or L forms follow the SMILES beside them. *: point of attachment. Decanoyl(3R-OH) = CCCCCCC[C@@H](O)CC(=O)*; dDab = NCC[C@@H](N)C(=O)O; Orn = NCCC[C@H](N)C(=O)O; Dab = NCC[C@H](N)C(=O)O

Tests used:
[1] = In vitro nephrotoxicity, GGT release from primary human kidney cells; format: cell-based; details: pH 7.4
Text: (§1) hPT cells were derived from whole human kidneys procured by the International Institute for the Advancement of Medicine (Edison, N.J., USA). All tissue was scored by a pathologist as normal (i.e., derived from non-cancerous, non-diseased tissue). Cell isolation procedures were based on those originally described by Todd et al. (1996) and modified (Cummings and Lash, 2000; Cummings et al., 2000) with use of sterile conditions (i.e., all instruments and glassware were autoclaved and all buffers were filtered through a 0.2-μm pore-size filter). Renal cortex and outer stripe were cut into slices, washed with sterile PBS, minced, and the pieces were placed in a trypsinization flask filled with 300 ml of sterile, filtered Hanks' buffer, containing 25 mM NaHCO3, 25 mM HEPES, pH 7.4, 0.5 mM EGTA, 0.2% (w/v) bovine serum albumin, 50 μg/ml gentamicin, 1.3 mg/mL collagenase, and 0.59 mg/ml CaCl2), which was filtered prior to use. Whole kidneys were perfused with Wisconsin medium and kept on ice until they arrived at the laboratory, which was usually within 24 h of removal from the donor.
(§2) All buffers were continuously bubbled with 95% O2/5% CO2 and were maintained at 37° C. Minced cortical pieces from whole kidneys were subjected to collagenase digestion for 60 min, after which the supernatant was filtered through a 70-μm mesh filter to remove tissue fragments, centrifuged at 150×g for 7 min, and the pellet resuspended in Dulbecco's Modified Eagle's Medium: Ham's F12 Medium (DMEM/F12; 1/1). Approximately 5 to 7×10^6 cells were obtained per 1 g of human kidney cortical tissue.
(§3) hPT cells were resuspended in 2 mL of DMEM/F12 and diluted to 500 mL with cell culture medium, which was serum-free and hormonally-defined. Composition of this supplemented medium was based on earlier work establishing optimal conditions for primary culture of rat PT cells (Lash et al., 1995). Basal medium was a 1:1 mixture of DMEM/F12. […] Cells were seeded in a volume of 0.5 ml at a density of 50-100 μg protein per cm^2 (0.5-1.0×10^6 cells/ml) on 24-well plates. Cultures were grown at 37° C. in a humidified incubator under an atmosphere of 95% air/5% CO2 at pH 7.4. Cultures were grown to approximately 80%-90% confluence (generally 5-6 days) prior to experiments. Cells were harvested by either scraping the flasks with a Teflon scraper or by brief incubation with Cellstripper (Cellgro, Herndon, Va., USA) (in Ca^2+- and Mg^2+-free Hanks' buffer).
Release of gamm-glutanyltransferase was assessed according to Orlowski, M., Meister, A. 1963. γ-Glutamyl-p-nitroanilide: A new convenient substrate for determination and study of L- and D-γ-glutamyltranspeptidase activities (Biochim. Biophys. Acta 73: 679-681.)
A 2.5 mM substrate Solution was prepared from 67 mg γ-glutamyl-p-nitroanilide+264 mg glycylglycine in 100 mL of 0.05 M Tris, pH 8.2 (50 mM Tris, pH 8.2: 605 mg Tris/HCl per 100 mL).
For the assay in 96-well plates, 6-μL of sample and 0.3 mL substrate solution were added to each well. The absorbance was measured at 410 nm for the appearance of product, p-nitroanilide (molar extinction=8800 M^−1 cm^−1).

[2] = In vitro nephrotoxicity, LDH release from primary human kidney cells; format: cell-based; details: pH 7.4
Text: as §1, §2, §3

[3] = test system: Neisseria gonorrhoeae; test: MIC determination, Neisseria gonorrhoeae; format: cell-based; details: for MIC N. gonorrhoeae F89: strain F89; for MIC N. gonorrhoeae FA19 ATCC BAA-1838: strain FA19 ATCC BAA-1838; for MIC N. gonorrhoeae FA1090 A25 ATCC 700825: strain FA1090 A25 ATCC 700825; for MIC N. gonorrhoeae H041: strain H041
Procedure: Bacteria were either obtained from American Type Culture Collection (ATCC; Manassas, Va., USA) or independent academic clinical isolate collections, as listed in Table 18 below. Bacteria were cultured in Nutrient broth (NB; Bacto Laboratories, catalogue No. 234000) or Mueller Hinton broth (MHB; Bacto Laboratories, catalogue No. 211443) at 37° C. overnight with shaking (˜180 RPM). A sample of each culture was then diluted 50-fold in fresh MHB and incubated at 37° C. for 2-3 h with shaking (˜180 RPM). Compound stock solutions were prepared as 0.64 mg/mL or 2.56 mg/mL in water. The compounds, at twice the final desired concentration, were serially diluted 2-fold across the wells of 96-well plates (Polystyrene, Corning, catalogue No. 3370). Mid-log phase bacterial cultures (after 2-3 h incubation) were diluted to a final concentration of 1×10^6 colony forming units (CFU)/mL, and 50 μL was added to each well giving a final cell density of 5×10^5 and a compound concentration range of 32 μg/mL to 0.015 μg/mL (128-0.06 μg/mL against P. aeruginosa PA9704).

[4] = test system: P. aeruginosa ATCC 27853; details: ATCC 27853
Procedure, shortened: (§4)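 Mid-log cultures grown in Mueller Hinton broth at 37° C were tested by 2-fold broth microdilution at 5×10^5 CFU/mL final. Compounds were dissolved in water and tested over a final range of 32 to 0.015 μg/mL.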

[5] = test system: A. baumannii GN_093 PmxR; details: GN 093 PmxR
Procedure, shortened: as §4

[6] = test system: E. coli ATCC 25922; details: ATCC 25922
Procedure, shortened: as §4

[7] = test system: K. pneumoniae GN_102 PmxR; details: GN 102 PmxR
Procedure, shortened: as §4

[8] = test system: K. pneumoniae ATCC 700603, MDR; details: ATCC 700603
Procedure, shortened: as §4

[9] = test system: K. pneumoniae ATCC BAA-2146, NDM-1 pos; details: ATCC BAA-2146
Procedure, shortened: as §4

[10] = test system: S. aureus ATCC 25923, MSSA; details: ATCC 25923
Procedure, shortened: as §4

[11] = test system: P. aeruginosa GN_105, PmxR; details: GN 105, PmxR
Procedure, shortened: as §4

[12] = test system: K. pneumoniae GN_106, PmxR; details: GN 106, PmxR
Procedure, shortened: as §4

[13] = test system: A. baumannii ATCC 19606; details: ATCC 19606
Procedure, shortened: as §4

[14] = test system: P. aeruginosa GN_043, PmxR; details: polymyxin-resistant
Procedure, shortened: as §4

[15] = test system: K. pneumoniae ATCC 13883; details: ATCC 13883
Procedure, shortened: as §4

Compound	CC50 [1]	CC50 [2]	MIC N. gonorrhoeae F89 [3]	MIC N. gonorrhoeae FA19 ATCC BAA-1838 [3]	MIC N. gonorrhoeae FA1090 A25 ATCC 700825 [3]	MIC N. gonorrhoeae H041 [3]	MIC P. aeruginosa ATCC 27853 [4]	MIC A. baumannii GN_093 PmxR [5]	MIC E. coli ATCC 25922 [6]	MIC K. pneumoniae GN_102 PmxR [7]	MIC K. pneumoniae ATCC 700603, MDR [8]	MIC K. pneumoniae ATCC BAA-2146, NDM-1 pos [9]	MIC S. aureus ATCC 25923, MSSA [10]	MIC K. pneumoniae GN_106, PmxR [12]	MIC A. baumannii ATCC 19606 [13]	MIC P. aeruginosa GN_043, PmxR [14]	MIC K. pneumoniae ATCC 13883 [15]	other results
CCCCCCC[C@@H](O)CC(=O)N[C@H](CCN)C(=O)N[C@H]1CCNC(=O)[C@H](CC(C)C)NC(=O)[C@H](CCN)NC(=O)[C@H](CCCN)NC(=O)[C@H](CC(C)C)NC(=O)[C@@H](Cc2ccccc2)NC(=O)[C@H](CCN)NC1=O [compound 991, 3(R)OH-nC9CO-D-Dab-cyc[L-Dab-L-Dab-D-Phe-L-Leu-L-Orn-L-Dab-L-Leu]] ({Decanoyl(3R-OH)}-[dDab][Dab][Dab][dF]L[Orn][Dab]L; lactam 2-C)	> 128 µg/mL	107 µg/mL (≈ 101 µM)	1.3 µg/mL (≈ 1.23 µM)	0.39 µg/mL (≈ 0.368 µM)	1.56 µg/mL (≈ 1.47 µM)	2.08 µg/mL (≈ 1.97 µM)	–	–	–	–	–	–	–	–	–	–	–	MIC, P. aeruginosa ATCC 27853 [4]: 2 µg/mL (≈ 1.89 µM); MIC, A. baumannii Cl Ptyela 10073 4512:2, PmxR [5]: 8 µg/mL (≈ 7.56 µM); MIC, E. coli ATCC 25922 [6]: 4 µg/mL (≈ 3.78 µM); MIC, K. pneumoniae Cl Koprana 10065 0661:1, PmxR [7]: 1 µg/mL (≈ 0.945 µM); MIC, K. pneumoniae ATCC 700603, MDR [8]: 4 µg/mL (≈ 3.78 µM); MIC, K. pneumoniae ATCC BAA-2146, NDM-1 pos [9]: 4 µg/mL (≈ 3.78 µM); MIC, S. Aureus ATCC 25923, MSSA [10]: 8 µg/mL (≈ 7.56 µM); MIC, P. aeruginosa PA9704, PmxR [11]: 1 µg/mL (≈ 0.945 µM); MIC, K. pneumoniae Cl 138-16347-20362, PmxR [12]: 2 µg/mL (≈ 1.89 µM); MIC, A. baumannii ATCC 19606 [13]: 4 µg/mL (≈ 3.78 µM); MIC, P. aeruginosa FADDI-PA070, PmxR ([14]; Table 5): 2 µg/mL (≈ 1.89 µM); MIC, K. pneumoniae ATCC 13883 [15]: 4 µg/mL (≈ 3.78 µM)
CCCCCCC[C@@H](O)CC(=O)N[C@H](CCN)C(=O)N[C@H]1CCNC(=O)[C@H](Cc2c[nH]c3ccccc23)NC(=O)[C@H](CCN)NC(=O)[C@H](CCN)NC(=O)[C@H](CC(C)C)NC(=O)[C@@H](Cc2ccccc2)NC(=O)[C@H](CCN)NC1=O [compound 6509, 3(R)OH-nC9CO-D-Dab-cyc[L-Dab-L-Dab-D-Phe-L-Leu-L-Dab-L-Dab-L-Trp]] ({Decanoyl(3R-OH)}-[dDab][Dab][Dab][dF]L[Dab][Dab]W; lactam 2-C)	> 128 µg/mL	> 128 µg/mL	1.04 µg/mL (≈ 0.931 µM)	0.78 µg/mL (≈ 0.698 µM)	0.65 µg/mL (≈ 0.582 µM)	1.69 µg/mL (≈ 1.51 µM)	2 µg/mL (≈ 1.79 µM)	8 µg/mL (≈ 7.16 µM)	4 µg/mL (≈ 3.58 µM)	4 µg/mL (≈ 3.58 µM)	2 µg/mL (≈ 1.79 µM)	4 µg/mL (≈ 3.58 µM)	4 µg/mL (≈ 3.58 µM)	4 µg/mL (≈ 3.58 µM)	8 µg/mL (≈ 7.16 µM)	1 µg/mL (≈ 0.895 µM)	4 µg/mL (≈ 3.58 µM)	MIC P. aeruginosa GN_105, PmxR [11]: 1 µg/mL (≈ 0.895 µM)
CCCCCCC[C@@H](O)CC(=O)N[C@H](CCN)C(=O)N[C@H]1CCNC(=O)[C@H](CC(C)C)NC(=O)[C@H](CCCNC(=N)N)NC(=O)[C@H](CCN)NC(=O)[C@H](CC(C)C)NC(=O)[C@@H](Cc2ccccc2)NC(=O)[C@H](CCN)NC1=O [compound 8643, 3(R)OH-nC9CO-D-Dab-cyc[L-Dab-L-DAB-D-Phe-L-Leu-L-Dab-L-Arg-L-Leu]] ({Decanoyl(3R-OH)}-[dDab][Dab][Dab][dF]L[Dab]RL; lactam 2-C)	> 128 µg/mL	> 128 µg/mL	–	1.56 µg/mL (≈ 1.42 µM)	–	–	2 µg/mL (≈ 1.82 µM)	16 µg/mL (≈ 14.5 µM)	1 µg/mL (≈ 0.909 µM)	2 µg/mL (≈ 1.82 µM)	2 µg/mL (≈ 1.82 µM)	2 µg/mL (≈ 1.82 µM)	16 µg/mL (≈ 14.5 µM)	2 µg/mL (≈ 1.82 µM)	4 µg/mL (≈ 3.63 µM)	2 µg/mL (≈ 1.82 µM)	2 µg/mL (≈ 1.82 µM)	–
